# Results: paper PMC11605156, “Triterpenoids from Ganoderma lucidum inhibit cytochrome P450 enzymes interfering with the metabolic process of specific clinical drugs” (Frontiers in Pharmacology, 2024)
# Key:
# in vivo = details: male, SD, rat, in vivo
# Description: SD rats (Male, weighing 220 g ± 20 g) were divided into a dichloromethane administration group and a control group with 6 rats in each group. Both groups were given probe substrate drugs by gavage. […] 200 μL blood samples were taken from the rat jugular vein at 0.167, 0.333, 0.5, 0.75, 1, 2, 3, 4, 6, 8, 10, and 12 h after the administration of the probe substrate. After precipitation of proteins by with 600 μL acetonitrile via centrifugation […] at 4°C at 3,500 rpm for 10 min. The supernatant was detected using liquid chromatography-tandem mass spectrometry (LC-MS/MS). The mass spectrometry information of the probe drug is shown in Supplementary Table S3. Animal experiments in this study were approved by the Animal Ethics Committee of the Dalian Medical University.
# CYP1A2 = molecular target: T1, CYP1A2 (Homo sapiens, UniProt P05177); assay: CYP1A2 inhibition, probe/drug metabolism in human liver microsomes (LC-MS/MS); details: for activity at 30 min: human, human liver microsomes, pH 7.4, probe phenacetin 40 μM, Residual activity (%) CYP1A2, HLM 0.5 mg/mL, phenacetin 40 μM
# T1 sequence (P05177 1-516): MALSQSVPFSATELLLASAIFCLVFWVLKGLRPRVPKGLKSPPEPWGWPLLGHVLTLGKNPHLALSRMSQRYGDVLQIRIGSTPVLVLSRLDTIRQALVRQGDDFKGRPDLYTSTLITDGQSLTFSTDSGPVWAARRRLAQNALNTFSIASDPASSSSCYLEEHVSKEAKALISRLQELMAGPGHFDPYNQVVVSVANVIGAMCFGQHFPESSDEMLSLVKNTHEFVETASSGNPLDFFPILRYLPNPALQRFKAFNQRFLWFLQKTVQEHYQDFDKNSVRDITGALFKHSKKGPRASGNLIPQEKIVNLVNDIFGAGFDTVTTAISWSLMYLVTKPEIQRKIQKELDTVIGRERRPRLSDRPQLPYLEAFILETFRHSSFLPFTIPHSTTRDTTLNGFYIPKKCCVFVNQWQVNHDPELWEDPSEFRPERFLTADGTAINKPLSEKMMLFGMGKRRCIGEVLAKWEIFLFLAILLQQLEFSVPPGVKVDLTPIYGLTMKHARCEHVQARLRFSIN
# Description: (§1) The total volume of the in vitro metabolic incubation system is 200 μL. The probe substrate concentration in the system is shown in Supplementary Table S1. […] The reaction sample was preheated in a constant temperature mixer at 37°C. Then NADP^+ was added to the system to initiate the reaction. The reaction time is 30 min, and 100 μL acetonitrile will be added on time to quickly terminate the reaction, followed by centrifugation at 4°C and 20,000 g for 20 min. The supernatant was analyzed using liquid chromatography tandem mass spectrometry (LC-MS/MS), and the activity of CYP enzymes was evaluated by the generation of probe metabolites. The mass spectrometry information of probe substrates is shown in Supplementary Table S3.
# (§2) The isolated triterpenoids (1–66) were used to establish a compounds library. The inhibitory effects of 66 triterpenoids from G. lucidum on seven subtypes of CYP enzymes (CYP1A2, 2A6, 2D6, 2B6, 2C9, 2C19, 3A4) were evaluated followed the above-mentioned experimental procedures.
# (§3) For 16 clinical drugs metabolized by CYP enzymes, potential DDI studies were conducted on triterpenoids (6, 25) of G. lucidum, and IC50 values were measured.
# (§4) Clinical drugs: Phenacetin, melatonin, clozapine and riluzole are metabolized by CYP1A2. Bupropion, artemisinin, efavirenz and sertraline are metabolized by CYP2B6. Diclofenac, valsartan, glimepiride and glibenclamide are metabolized by CYP2C9. Midazolam, imatinib, simvastatin and diltiazem are metabolized by CYP3A4.
# (§5) Table S1. The information of probes for CYPs activity assay
# (§6) Table S2. Information of clinical drugs
# CYP2B6 = molecular target: T2, CYP2B6 (Homo sapiens, UniProt P20813); assay: CYP2B6 inhibition, probe/drug metabolism in human liver microsomes; details: human, human liver microsomes, pH 7.4, probe bupropion 75 μM, Residual activity (%) CYP2B6, HLM 0.5 mg/mL, bupropion 75 μM, 30 min
# T2 sequence (P20813 1-491): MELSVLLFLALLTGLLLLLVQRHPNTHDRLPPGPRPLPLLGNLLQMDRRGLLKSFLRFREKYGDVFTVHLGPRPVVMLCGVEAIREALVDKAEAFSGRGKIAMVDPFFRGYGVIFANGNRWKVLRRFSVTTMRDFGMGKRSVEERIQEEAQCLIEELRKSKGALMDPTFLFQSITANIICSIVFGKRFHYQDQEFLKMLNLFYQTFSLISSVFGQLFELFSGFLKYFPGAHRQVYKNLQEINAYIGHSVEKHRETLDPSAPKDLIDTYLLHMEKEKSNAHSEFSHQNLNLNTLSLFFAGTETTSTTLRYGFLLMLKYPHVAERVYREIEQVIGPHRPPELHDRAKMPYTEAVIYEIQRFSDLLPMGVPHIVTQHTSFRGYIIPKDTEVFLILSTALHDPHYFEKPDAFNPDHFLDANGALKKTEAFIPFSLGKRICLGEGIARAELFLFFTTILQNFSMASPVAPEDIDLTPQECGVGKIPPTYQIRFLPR
# Description: as §1, §2, §3, §4, §5, §6
# CYP2C19 = CYP2C19 (Homo sapiens, UniProt P33261); assay: CYP2C19 inhibition, S-mephenytoin probe in human liver microsomes; details: human, human liver microsomes, pH 7.4, probe S-mephenytoin 50 μM, Residual activity (%) CYP2C19, HLM 0.5 mg/mL, S-mephenytoin 50 μM, 30 min
# Description: as §1, §2, §5
# CYP3A4 = CYP3A4 (Homo sapiens, UniProt P08684); assay: CYP3A4 inhibition, probe/drug metabolism in human liver microsomes; details: human, human liver microsomes, pH 7.4, probe midazolam 5 μM, Residual activity (%) CYP3A4, HLM 0.5 mg/mL, midazolam 5 μM, 30 min
# Description: as §1, §2, §3, §4, §5, §6
# CYP2C9 = CYP2C9 (Homo sapiens, UniProt P11712); assay: CYP2C9 inhibition, probe/drug metabolism in human liver microsomes; details: human, human liver microsomes, pH 7.4, probe diclofenac 4 μM, Residual activity (%) CYP2C9, HLM 0.5 mg/mL, diclofenac 4 μM, 30 min
# Description: as §1, §2, §3, §4, §5, §6
# CYP2A6 = molecular target: T3, CYP2A6 (Homo sapiens, UniProt P11509); assay: CYP2A6 inhibition, coumarin probe in human liver microsomes; details: human, human liver microsomes, pH 7.4, probe coumarin 2 μM, Residual activity (%) CYP2A6, HLM 0.5 mg/mL
# T3 sequence (P11509 1-494): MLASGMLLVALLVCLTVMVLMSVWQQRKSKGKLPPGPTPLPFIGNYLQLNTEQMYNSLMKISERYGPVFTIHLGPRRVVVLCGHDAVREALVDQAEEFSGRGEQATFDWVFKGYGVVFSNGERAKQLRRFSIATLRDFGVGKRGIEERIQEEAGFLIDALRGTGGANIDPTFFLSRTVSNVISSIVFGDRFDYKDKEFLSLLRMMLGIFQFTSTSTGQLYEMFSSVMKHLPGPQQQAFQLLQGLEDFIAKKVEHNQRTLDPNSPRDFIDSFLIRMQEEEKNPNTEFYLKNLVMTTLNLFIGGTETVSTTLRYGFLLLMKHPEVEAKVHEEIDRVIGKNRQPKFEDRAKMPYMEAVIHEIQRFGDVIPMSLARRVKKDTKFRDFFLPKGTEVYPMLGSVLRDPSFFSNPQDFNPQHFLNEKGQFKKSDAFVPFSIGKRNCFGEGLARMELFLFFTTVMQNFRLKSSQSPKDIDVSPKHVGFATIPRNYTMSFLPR
# Description: as §1, §2, §5
# CYP2D6 = CYP2D6 (Homo sapiens, UniProt P10635); assay: CYP2D6 inhibition, dextromethorphan probe in human liver microsomes; details: human, human liver microsomes, pH 7.4, probe dextromethorphan 5 μM, Residual activity (%) CYP2D6, HLM 0.5 mg/mL
# Description: as §1, §2, §5
# [1] = IC50 against CYP 1A2, substrate phenacetin 40 μM, HLM
# Sequence of CYP2D6 (P10635 whole entry): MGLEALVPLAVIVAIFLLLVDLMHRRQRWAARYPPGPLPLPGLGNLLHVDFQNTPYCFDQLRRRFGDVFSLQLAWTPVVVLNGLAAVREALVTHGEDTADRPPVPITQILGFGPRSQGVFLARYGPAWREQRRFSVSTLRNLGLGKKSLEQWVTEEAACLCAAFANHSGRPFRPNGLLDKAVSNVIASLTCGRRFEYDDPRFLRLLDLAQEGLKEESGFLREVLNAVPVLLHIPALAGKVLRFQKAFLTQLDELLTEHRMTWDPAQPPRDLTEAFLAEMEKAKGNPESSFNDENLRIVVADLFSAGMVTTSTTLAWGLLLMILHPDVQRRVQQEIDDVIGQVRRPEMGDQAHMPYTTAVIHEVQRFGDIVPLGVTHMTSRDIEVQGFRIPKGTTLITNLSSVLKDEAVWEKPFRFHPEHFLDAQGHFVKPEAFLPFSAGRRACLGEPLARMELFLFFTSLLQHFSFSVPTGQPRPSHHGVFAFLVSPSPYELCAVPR
# Sequence of CYP2C19 (P33261 whole entry): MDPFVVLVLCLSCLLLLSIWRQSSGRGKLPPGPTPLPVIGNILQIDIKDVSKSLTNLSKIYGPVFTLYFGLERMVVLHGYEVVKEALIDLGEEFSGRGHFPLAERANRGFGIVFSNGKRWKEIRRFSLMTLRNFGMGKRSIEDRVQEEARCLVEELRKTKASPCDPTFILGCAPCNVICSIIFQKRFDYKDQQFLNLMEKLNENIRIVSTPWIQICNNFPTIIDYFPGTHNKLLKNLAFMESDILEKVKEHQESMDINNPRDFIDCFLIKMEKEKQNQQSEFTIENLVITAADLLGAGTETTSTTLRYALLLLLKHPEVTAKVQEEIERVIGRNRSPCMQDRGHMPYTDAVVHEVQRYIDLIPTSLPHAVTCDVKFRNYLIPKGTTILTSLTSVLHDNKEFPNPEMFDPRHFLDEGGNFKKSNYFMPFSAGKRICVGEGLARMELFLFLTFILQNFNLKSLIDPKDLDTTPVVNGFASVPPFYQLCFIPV
# Sequence of CYP3A4 (P08684 whole entry): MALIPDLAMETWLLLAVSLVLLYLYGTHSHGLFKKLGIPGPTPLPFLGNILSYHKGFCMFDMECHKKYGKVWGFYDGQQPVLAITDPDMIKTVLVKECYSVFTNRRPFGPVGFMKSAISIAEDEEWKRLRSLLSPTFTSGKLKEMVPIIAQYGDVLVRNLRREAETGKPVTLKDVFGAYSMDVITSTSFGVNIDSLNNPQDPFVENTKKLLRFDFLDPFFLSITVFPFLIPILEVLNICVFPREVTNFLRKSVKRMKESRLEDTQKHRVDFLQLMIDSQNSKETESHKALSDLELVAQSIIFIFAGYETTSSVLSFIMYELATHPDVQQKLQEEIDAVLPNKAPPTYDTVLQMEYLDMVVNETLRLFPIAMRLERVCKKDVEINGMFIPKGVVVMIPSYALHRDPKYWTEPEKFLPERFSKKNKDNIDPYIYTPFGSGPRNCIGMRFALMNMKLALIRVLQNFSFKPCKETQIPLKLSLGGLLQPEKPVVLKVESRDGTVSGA
# Sequence of CYP2C9 (P11712 whole entry): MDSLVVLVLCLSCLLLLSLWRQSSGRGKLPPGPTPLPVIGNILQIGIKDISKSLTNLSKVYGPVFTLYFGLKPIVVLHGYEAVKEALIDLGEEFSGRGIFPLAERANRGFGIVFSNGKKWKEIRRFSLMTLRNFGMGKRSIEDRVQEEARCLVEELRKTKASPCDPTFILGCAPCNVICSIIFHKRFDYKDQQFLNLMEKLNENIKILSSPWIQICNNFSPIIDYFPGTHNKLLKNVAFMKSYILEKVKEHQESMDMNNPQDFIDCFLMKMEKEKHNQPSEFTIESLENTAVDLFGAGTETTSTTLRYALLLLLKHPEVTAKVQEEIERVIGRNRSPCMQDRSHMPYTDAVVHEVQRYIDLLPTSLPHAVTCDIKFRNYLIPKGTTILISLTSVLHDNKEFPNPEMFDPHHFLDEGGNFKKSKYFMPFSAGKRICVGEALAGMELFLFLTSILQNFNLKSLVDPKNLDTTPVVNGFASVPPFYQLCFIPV
Compound,AUM (in vivo),Cl_F_ (in vivo),AUC(0-inf) (in vivo; po),AUC(0-t) (in vivo; po),Cmax (in vivo; po),Tmax (in vivo; po),Vz_F (in vivo; po),IC50 (CYP1A2; [1]),activity at 30 min (CYP1A2; 30 min),activity at 30 min (CYP2B6),activity at 30 min (CYP2C19),activity at 30 min (CYP3A4),activity at 30 min (CYP2C9),activity at 30 min (CYP2A6),activity at 30 min (CYP2D6),"IC50 (CYP1A2; IC50 against metabolism of clozapine mediated by CYP1A2, substrate clozapine 10 μM, 20 min)","IC50 (CYP1A2; IC50 against metabolism of melatonin mediated by CYP1A2, substrate melatonin 5 μM, 30 min)","IC50 (CYP1A2; IC50 against metabolism of riluzole mediated by CYP1A2, substrate riluzole 5 μM, 60 min)","IC50 (CYP1A2; IC50 values, metabolism of four drugs mediated by CYP 1A2, range over phenacetin, riluzole, clozapine, melatonin)"
"CC(NC(C)(C)C)C(=O)c1cccc(Cl)c1 (stereo not drawn) [Bup, bupropion]","15,378.075 ± 3,089.500 h*ng/mL","3,954.386 ± 375.228 mL/h/kg",5090 ng·h/mL,4950 ng·h/mL,1890 ± 154 ng/mL,25 ± 7.74 min,"10,405.594 ± 1,602.189 mL/kg",–,–,–,–,–,–,–,–,–,–,–,–
CC(=CC(=O)CC(C)C(=O)O)C1CC(=O)C2(C)C3=C(C(=O)CC12C)C1(C)CCC(=O)C(C)(CO)C1CC3O (stereo not drawn) [Compound 1],–,–,–,–,–,–,–,10.1 ± 0.23 µM,29.1 ± 1.9%,86.9 ± 5.76%,65 ± 6%,84.3 ± 7.26%,91.82 ± 0.87%,79.5 ± 3.07%,82.4 ± 1.5%,–,–,–,–
CC(CC(=O)CC(C)C1CC(=O)C2(C)C3=C(C(=O)CC12C)C1(C)CCC(O)C(C)(CO)C1CC3O)C(=O)O (stereo not drawn) [Compound 2],–,–,–,–,–,–,–,16 ± 4.05 µM,35.4 ± 3.33%,79.86 ± 0.32%,62.77 ± 0.26%,79.6 ± 5.54%,87.1 ± 3.47%,78.38 ± 0.16%,79.7 ± 8.99%,–,–,–,–
CC(CC(=O)CC(C)C1CC(=O)C2(C)C3=C(C(=O)C(O)C12C)C1(C)CCC(=O)C(C)(CO)C1CC3O)C(=O)O (stereo not drawn) [Compound 3],–,–,–,–,–,–,–,14 ± 1.73 µM,33 ± 4.08%,75.3 ± 4.16%,63.6 ± 7.83%,60.3 ± 3.06%,87.3 ± 6.36%,79.9 ± 0.97%,76.5 ± 4.49%,–,–,–,–

# Results, then the molecule that gave them:
AUM (in vivo),Cl_F_ (in vivo),AUC(0-inf) (in vivo; po),AUC(0-t) (in vivo; po),Cmax (in vivo; po),Tmax (in vivo; po),Vz_F (in vivo; po),IC50 (CYP1A2; [1]),activity at 30 min (CYP1A2; 30 min),activity at 30 min (CYP2B6),activity at 30 min (CYP2C19),activity at 30 min (CYP3A4),activity at 30 min (CYP2C9),activity at 30 min (CYP2A6),activity at 30 min (CYP2D6),"IC50 (CYP1A2; IC50 against metabolism of clozapine mediated by CYP1A2, substrate clozapine 10 μM, 20 min)","IC50 (CYP1A2; IC50 against metabolism of melatonin mediated by CYP1A2, substrate melatonin 5 μM, 30 min)","IC50 (CYP1A2; IC50 against metabolism of riluzole mediated by CYP1A2, substrate riluzole 5 μM, 60 min)","IC50 (CYP1A2; IC50 values, metabolism of four drugs mediated by CYP 1A2, range over phenacetin, riluzole, clozapine, melatonin)",Compound
–,–,–,–,–,–,–,11.6 ± 1.02 µM,29.1 ± 0.38%,97.5 ± 4.16%,57.82 ± 0.056%,67.6 ± 2.68%,86.6 ± 1.3%,81.24 ± 0.65%,76.9 ± 6.89%,–,–,–,–,CC(CC(=O)CC(C)C1CC(O)C2(C)C3=C(C(=O)CC12C)C1(C)CCC(O)C(C)(CO)C1CC3=O)C(=O)O (stereo not drawn) [Compound 4]
–,–,–,–,–,–,–,9.62 ± 2.03 µM,28 ± 1.5%,84.6 ± 5.76%,58.5 ± 8.25%,72.57 ± 0.19%,90.5 ± 3.9%,75.3 ± 1.29%,66.7 ± 6.29%,12.9 ± 1.11 µM,19 ± 1.68 µM,14.8 ± 2.15 µM,9.62 to 19 µM,"CC(=CC(=O)CC(C)C(=O)O)C1CC(=O)C2(C)C3=C(C(=O)C(O)C12C)C1(C)CCC(=O)C(C)(CO)C1CC3O (stereo not drawn) [Compound 6, ganoderica F]"
